Values quoted from earlier work, collected in patent US20040048261A1, “Invertebrate choline transporter nucleic acids, polypeptides and uses thereof” (priority 2002, published 2004).

Legend:
[1] = biological target: low-affinity, sodium-independent system for choline uptake; conditions: synaptosome studies, high choline concentrations, read-out: inhibition constant (Ki)
[2] = biological target: high-affinity, sodium-dependent system for choline uptake; conditions: synaptosome studies, low choline concentrations

For `C[N+]1(C)CCOC(O)(c2ccc(-c3ccc(C4(O)C[N+](C)(C)CCO4)cc3)cc2)C1` (centres unmarked) [HC-3, hemicholinium-3], the Ki [1] is given as roughly 50 µM and the Ki [2] is given as 0.01 to 0.1 µM.
